Entries after “also recorded” stand apart in the source; their conditions may differ.
Test system: CD4+CD45RBhigh T transfer IBD model
Test: CD4+CD45RBhigh T transfer inflammatory bowel disease (IBD) model in CB17 SCID mice
Assay type: in vivo
From the text: 1. Experimental Protocol for CD4^+CD45RB^high T Transfer Inflammatory Bowel Disease (IBD) Model in CB17 SCID Mice.
Balb/c mice and CB17 SCID were purchased from Zhejiang Vital River Laboratory Animal Technology Co., Ltd. (Zhejiang, China). Animals were housed and handled in a temperature-controlled environment with a 12-h light/12-h dark cycle. A total of 50 CB17 SCID mice were assigned to 5 groups by randomization based on body weight.
CD4^+ T cells were isolated from the spleens of Balb/c mice using negative magnetic bead separation kit (Miltenyi Biotec) according to the manufacturers' instructions. The CD4^+CD45RB^high T and CD4^+CD45RB^low T cells were selected by flow cytometry and used for model construction. The isolated CD4^+CD45RB^high T cells were intraperitoneally injected into 40 recipient CB17 SCID mice with 5×10^5 cells per animal. Ten mice in Group 1 (G1) were intraperitoneally injected with 5×10^5 CD4^+CD45RB^low T cells as negative control group.
40 recipient CB17 SCID mice injected with CD4^+CD45RB^high T cells were assigned to four groups (n=10 for each group): G2, vehicle control (po, qd, from day 0 to day 42); G3, 30 mg/kg Cpd. 4 (po, qd, from day 0 to day 42); G4, 30 mg/kg Cpd. 4 (po, qd, from day 14 to day 42); G5, 100 mg/kg Cpd. 4 (po, qd, from day 14 to day 42); G6, positive control, anti-mTNF-α 25 mg/kg (ip, Q3D, from day 14 to day 42).
Clinical signs of IBD were assessed every 3 day based on the scores of disease activity index (DAI) which was evaluated from two parameters using a scoring system from 0 to 4: stool consistency (0, normal stool; 1, soft but still formed stool; 2, soft and not formed stool; 3, very soft and wet stool; 4, watery diarrhea) and body weight loss (0, no body weight loos; 1, 1-5% body weight loss; 2, 6-10% body weight loss; 3, 11-20% body weight loss; 4, >20% body weight loss).
At the end of experiment, the animals were euthanized, dissected and the entire colon was quickly removed and gently cleared of feces.
The entire colon was weighed, and the total length was measured. […] Cpd.
The colons were Swiss-rolled and fixed with neutralized PFA followed by H&E staining. After that, the pathologists from WuXi clinical pathological analysis platform, who were blinded to animal ID, reviewed the H&E staining and scored. […]
At the end of the study (day 42), all the animals were sacrificed by CO2, and the colon tissues were collected and fixed in 10% formalin for pathological analysis (H&E and LFB staining). The histopathological score was evaluated microscopically in a blinded manner.

SMILES: O=C(NS(=O)(=O)c1ccc(NC[C@H]2COCCO2)c([N+](=O)[O-])c1)c1ccc(N2CCN(CC3=C(c4ccc(Cl)cc4)CC4(CCC4)CC3)CC2)cc1Oc1cnc2[nH]ccc2c1 [Cpd. 4, (S)-N-((4-(((1,4-dioxan-2-yl)methyl)amino)-3-nitrophenyl)sulfonyl)-2-((1H-pyrrolo[2,3-b]pyridin-5-yl)oxy)-4-(4-((6-(4-chlorophenyl)spiro[3.5]non-6-en-7-yl)methyl)piperazin-1-yl)benzamide]
- disease activity index (DAI), clinical score of IBD (Cpd. 4 po qd: G3 30 mg/kg day 0-42, G4 30 mg/kg day 14-42, G5 100 mg/kg day 14-42, anti-mTNF-α 25 mg/kg ip Q3D day 14-42, compared with Vehicle): significantly reducing the clinical score; also recorded: significantly reduced
- pathological score (colon, H&E) (day 42, all Cpd. 4 groups, compared with Vehicle): significantly reduced; also recorded: significantly decreased
- colon weight (end of experiment, Cpd. 4 all treatment groups (G3, G4, G5), anti-mTNF-α 25 mg/kg ip Q3D, vehicle 439.1 mg): significantly decreased
- colon length (end of experiment, Cpd. 4 in G3 (30 mg/kg day 0-42) and G5 (100 mg/kg day 14-42), anti-mTNF-α 25 mg/kg ip Q3D, vehicle 7.72 cm): significantly increased

— US20250152580A1, “METHODS FOR TREATING IMMUNE DISEASES” (Ascentage Pharma (Suzhou) co., Ltd., priority 2022, published 2025)
